Test results: ChEMBL document CHEMBL1148617, “Design, synthesis, and structure-activity relationships of 1-,3-,8-, and 9-substituted-9-deazaxanthines at the human A2B adenosine receptor” (J Med Chem, 2006)

How the values were obtained:
[1] = molecular target: T1, Adenosine receptor A2b (Homo sapiens) (UniProt P29275); test: Displacement of [3H]DPCPX from recombinant human adenosine A2B receptor expressed in HEK293 cells at 0.1 uM; format: cell-based
T1 sequence (whole entry): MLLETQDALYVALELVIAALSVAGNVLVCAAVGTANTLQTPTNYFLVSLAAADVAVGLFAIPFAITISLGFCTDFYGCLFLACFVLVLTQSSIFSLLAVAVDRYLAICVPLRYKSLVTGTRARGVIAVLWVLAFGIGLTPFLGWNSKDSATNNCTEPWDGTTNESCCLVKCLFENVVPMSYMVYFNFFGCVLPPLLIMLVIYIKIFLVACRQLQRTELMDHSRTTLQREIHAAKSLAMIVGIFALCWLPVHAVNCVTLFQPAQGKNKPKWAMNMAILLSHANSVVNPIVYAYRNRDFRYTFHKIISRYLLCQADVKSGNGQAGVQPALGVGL

[2] = molecular target: T1, Adenosine receptor A2b (Homo sapiens); test: Displacement of [3H]DPCPX from recombinant human adenosine A2B receptor expressed in HEK293 cells at 0.01 uM
Adenosine receptor A2a = Adenosine receptor A2a (Homo sapiens, UniProt P29274); test: Displacement of [3H]ZM-241385 from recombinant human adenosine A2A receptor expressed in HeLa cells at 0.1 uM
Adenosine receptor A2a, sequence (P29274 whole entry): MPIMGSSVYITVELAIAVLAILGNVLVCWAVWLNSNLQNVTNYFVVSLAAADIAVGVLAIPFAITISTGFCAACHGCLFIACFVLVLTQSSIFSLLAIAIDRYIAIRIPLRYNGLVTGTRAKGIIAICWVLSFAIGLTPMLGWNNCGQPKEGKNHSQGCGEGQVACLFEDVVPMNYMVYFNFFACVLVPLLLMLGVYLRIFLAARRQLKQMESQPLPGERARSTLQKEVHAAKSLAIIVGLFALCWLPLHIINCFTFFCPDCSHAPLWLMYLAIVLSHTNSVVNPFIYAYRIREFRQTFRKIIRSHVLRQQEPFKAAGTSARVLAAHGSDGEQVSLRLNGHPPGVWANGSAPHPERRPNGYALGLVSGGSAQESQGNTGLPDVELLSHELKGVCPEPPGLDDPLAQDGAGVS

SMILES | inhibition [1] [%] | inhibition [2] [%] | inhibition (Adenosine receptor A2a) [%]
COCCCn1c(=O)c2[nH]c(-c3ccc(OCC(=O)Nc4ccc(F)cc4)cc3)cc2n(CCCOC)c1=O | 68 | 24 | 20
CCCn1c(=O)c2[nH]c(-c3ccc(OCC(=O)Nc4ccc(F)cc4O)cc3)cc2n(CCC)c1=O | 88 | 23 | 80
CC(C)Cn1c(=O)c2[nH]c(-c3ccc(OCC(=O)O)cc3)cc2n(C)c1=O | 28 |  | 1
Cn1c(=O)c2[nH]c(-c3ccc(OCC(=O)O)cc3)cc2n(CCN2CCOCC2)c1=O | 18 |  | 11
CCCn1c(=O)c2[nH]c(-c3ccc(OCC(=O)OCC)cc3OC)cc2n(CCC)c1=O | 1 |  | 10
COCCCn1c(=O)c2[nH]c(-c3ccc(OCC(=O)O)cc3)cc2n(CCCOC)c1=O | 12 | 10 | 9
Cn1c(=O)c2[nH]c(-c3ccc(OCC(=O)N[C@H]4C(O)O[C@H](CO)[C@@H](O)[C@@H]4O)cc3)cc2n(C)c1=O (stereo partly drawn) | 33 | 7 | 13
CCCn1c(=O)n(C)c(=O)c2[nH]c(-c3ccc(OCC(=O)NCc4ccccc4)cc3)cc21 | 21 | 10 | 19
Cn1c(=O)c2[nH]c(-c3ccc(OCC(=O)NCc4ccncc4)cc3)cc2n(C)c1=O | 51 | 5 | 37
CCCn1c(=O)c2[nH]c(-c3ccc(N(C=O)CC(=O)Nc4ccccc4)cc3)cc2n(CCC)c1=O | 46 | 10 | 61
CCCn1c(=O)c2[nH]c(-c3ccc(OCC(=O)N[C@H](C)[C@H](O)c4ccccc4)cc3)cc2n(CCC)c1=O | 70 | 14 | 18
CCCn1c(=O)c2[nH]c(-c3ccc(OCC(=O)Nc4ncccc4O)cc3)cc2n(C)c1=O | 71 | 31 | 22
CCCn1c(=O)n(C)c(=O)c2[nH]c(-c3ccc(OCC(=O)Nc4ccc5c(c4)CCC5=O)cc3)cc21 | 50 | 12 | 26
O=C(COc1ccc(-c2cc3c([nH]2)c(=O)n(CC2CC2)c(=O)n3CC2CC2)cc1)Nc1ccc(F)cc1 | 95 | 57 | 98
CCCn1c(=O)c2[nH]c(-c3ccc(OCC(=O)OCC)cc3)cc2n(CCC)c1=O | 55 | 9 | 21
Cn1c(=O)c2[nH]c(-c3ccc(OC(C)(C)C(=O)O)cc3)cc2n(C)c1=O | 14 | 3 | 2
COCCCn1c(=O)c2[nH]c(-c3ccc(OCC(=O)Nc4ccc(Br)cc4)cc3)cc2n(CCCOC)c1=O | 85 | 45 | 30
CCCn1c(=O)c2[nH]c(-c3ccc(N(C=O)CC(=O)O)cc3)cc2n(CCC)c1=O | 40 | 9 | 9
COCCCn1c(=O)c2[nH]c(-c3ccc(OCC(=O)Nc4ccccc4)cc3)cc2n(CCCOC)c1=O | 65 | 1 | 28
CCCn1c(=O)c2[nH]c(-c3ccc(OCC(=O)Nc4ccc(C)cn4)cc3)cc2n(C)c1=O | 73 | 24 | 12
CCCn1c(=O)c2[nH]c(-c3ccc(OCC(=O)Nc4ccc(C(F)(F)F)cc4)cc3)cc2n(CCC)c1=O | 85 | 14 | 19
CCCn1c(=O)c2[nH]c(-c3ccc(OCC(=O)NC(CO)c4ccccc4)cc3)cc2n(CCC)c1=O (stereo not drawn) | 77 | 30 | 53
CCCn1c(=O)n(C)c(=O)c2[nH]c(-c3ccc(OCC(=O)N(C)Cc4ccccc4)cc3)cc21 | 32 | 15 | 15
CCCn1c(=O)c2[nH]c(-c3ccc(OCC(=O)NC(C(=O)OC)c4ccccc4)cc3)cc2n(CCC)c1=O (stereo not drawn) | 58 | 29 | 39
CCCn1c(=O)c2[nH]c(-c3ccc(OCC(=O)Nc4ccc(Br)cc4)cc3Cl)cc2n(CCC)c1=O | 79 | 17 | 31
CCCn1c(=O)c2[nH]c(-c3ccc(OCC(=O)Nc4ncccc4C)cc3)cc2n(C)c1=O | 68 | 25 | 26
O=C(COc1ccc(-c2cc3c([nH]2)c(=O)n(CC(F)(F)F)c(=O)n3CC(F)(F)F)cc1)Nc1ccc(F)cc1 | 68 | 22 | 18
